Results published in patent US11608313B2, “Adamantylmethylamine derivative and use thereof as pharmaceutical” (TOHOKU UNIVERSITY, priority 2017, dated 2023).

Key:
[1] = target: T1, Kir6.2 channels (Mus musculus, UniProt Q61743); assay: Patch-clamp assay of outward potassium current in Kir6.2 channel-overexpressing cells; type: cell-based; conditions: 10 nM, whole-cell patch-clamp
T1 construct: The plasmid vector having inserted therein Kir6.2 channel cDNA: pcDNA3.1-Kir6.2; expressed in transfected cells; host or cells: Neuro2A (N2A) cells, mouse neuroblastoma
T1 sequence (Q61743 1-390): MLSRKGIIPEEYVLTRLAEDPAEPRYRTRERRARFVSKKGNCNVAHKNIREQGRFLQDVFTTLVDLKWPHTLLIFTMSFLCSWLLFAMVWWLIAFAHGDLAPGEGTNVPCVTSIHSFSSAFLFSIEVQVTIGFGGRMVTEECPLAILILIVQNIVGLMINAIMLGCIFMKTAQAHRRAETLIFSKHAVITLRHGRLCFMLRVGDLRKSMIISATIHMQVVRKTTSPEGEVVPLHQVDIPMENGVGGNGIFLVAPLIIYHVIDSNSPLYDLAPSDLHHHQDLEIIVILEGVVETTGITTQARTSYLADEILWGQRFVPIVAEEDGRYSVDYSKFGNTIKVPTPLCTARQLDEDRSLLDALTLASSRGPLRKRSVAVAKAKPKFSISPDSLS
Excerpt: The Kir6.2 channel-overexpressing cells obtained in Test Example 1 were used to measure potassium current discharged out of the cells by a conventional patch-clamp assay. ATP-sensitive potassium channels (Kir6.2 channels) are localized in the cell membranes of nerve cells. When the channels are inhibited and closed, the threshold of the nerve cell membranes increases to create a condition analogous to temporal generation of action potential, with the result that intracellular potassium current is discharged out of the cells and instead extracellular calcium current enters the cells. Immunoblotting of Kir6.2 channel-overexpressing cells (prepared by the aforementioned method) using an anti-Kir6.2 channel antibody (prepared by a conventional method) (n=5, under the same conditions as in Test Example 1, except for using the anti-Kir6.2 channel antibody) confirmed that Kir6.2 channels were overexpressed in N2A cells (FIG. 2-1; upper: immunoblot staining images; lower: quantitative representations of the signal intensity of staining bands).

[2] = system: CaMKII; assay: CaMKII activation in hippocampus of Kir6.2-deficient mice (immunoblotting); type: in vivo; conditions: chronic treatment
Excerpt: By following the same procedure as in Test Examples 4 to 7, hippocampal slices were suspended in an SDS sample buffer and analyzed by immunoblotting for GluAl (Ser-831), which is known as a molecule that is activated by activation of CaMKII and CaMKIV, to thereby investigate the intracellular mechanism of cognitive function impairment in Kir6.2-deficient mice. The results are shown in FIGS. 9-1 and 9-2 (FIG. 9-1: band images obtained by immunoblotting; FIG. 9-2: results of quantification of the signal intensity of bands). In the hippocampus of the Kir6.2-deficient mice, increased CaMKII activation was seen and no effect was found of chronic treatment with TP-014.

[3] = system: Kir6.1-deficient mice (heterozygous); assay: Tail-suspension test and forced swim test in Kir6.1-deficient mice; type: in vivo; conditions: chronic oral treatment for 2 weeks, 1 mg/kg
Excerpt: Kir6.1-deficient mice (heterozygous, n=5 per group) were used to measure immobility time by tail-suspension test (FIG. 12-1) and forced swim test (FIG. 12-2) according to the same procedure as in Test Example 11. The heterozygous mice are those with half expression of Kir6.1 channels, unlike homozygous mice (complete Kir6.1-deficient mice) (homozygous mice die of arrhythmia after birth). […] The Kir6.1-deficient mice were obtained from Professor Susumu Seino, School of Medicine of Kobe University (Mild T., et al., Nature Medicine, 2002, 8, 466-472).

[4] = target: T2, Kir6.1 channels (Mus musculus, UniProt P97794); assay: Patch-clamp assay of outward potassium current in Kir6.1 channel-overexpressing cells; type: cell-based; conditions: 10 nM
T2 construct: The plasmid vector having inserted therein Kir6.1 channel cDNA: pcDNA3.1-Kir6.1; expressed in transfected cells; host or cells: Neuro2A (N2A) cells, mouse neuroblastoma
T2 sequence (P97794 1-424): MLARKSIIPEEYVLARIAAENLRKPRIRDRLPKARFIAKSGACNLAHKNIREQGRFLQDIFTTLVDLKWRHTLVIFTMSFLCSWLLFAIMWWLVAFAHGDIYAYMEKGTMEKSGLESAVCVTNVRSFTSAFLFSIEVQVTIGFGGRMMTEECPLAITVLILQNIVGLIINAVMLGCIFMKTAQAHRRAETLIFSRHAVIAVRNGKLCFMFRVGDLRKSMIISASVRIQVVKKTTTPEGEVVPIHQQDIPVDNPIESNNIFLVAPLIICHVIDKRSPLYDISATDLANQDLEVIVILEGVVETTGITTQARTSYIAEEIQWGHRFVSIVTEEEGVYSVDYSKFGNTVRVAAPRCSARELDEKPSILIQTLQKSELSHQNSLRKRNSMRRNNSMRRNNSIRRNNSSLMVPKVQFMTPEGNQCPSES
Excerpt: Further, the obtained Kir6.1 channel-overexpressing cells were used to measure potassium current discharged out of the cells by a conventional patch-clamp assay. ATP-sensitive potassium channels (Kir6.1 channels) are localized in the cell membranes of nerve cells. If the channels are inhibited and closed, the threshold of the nerve cell membranes rises to create a condition analogous to temporal generation of action potential, with the result that intracellular potassium current is discharged out of the cells and instead extracellular calcium current enters the cells. Immunoblotting of Kir6.1 channel-overexpressing cells (prepared by the aforementioned method) using an anti-Kir6.1 channel antibody (prepared by a conventional method) (n=5, under the same conditions as in Test Example 1, except for using the anti-Kir6.1 channel antibody) confirmed that Kir6.1 channels were overexpressed in N2A cells (FIG. 18-2; upper: immunoblot staining images; lower: quantitative representations of the signal intensity of staining bands).

outwardly flowing potassium current [1]: suppressed | outwardly flowing potassium current [4]: suppressed
SMILES: O=C(N[C@@H](c1ccccc1)[C@H]1[C@H]2C[C@@H]3C[C@](Cl)(C2)C[C@@]1(OC(=O)C(F)(F)F)C3)C(F)(F)F [TP-014, (1S,2R,3S,5S,7S)-5-chloro-2-((R)-phenyl(2,2,2-trifluoroacetamido)methyl)adamantan-1-yl 2,2,2-trifluoroacetate]
CaMKII activation in hippocampus [2]: no effect | depression-like symptom (immobility time) [3]: no effect
